Reference: patent publication US20260374739A1, “SMALL MOLECULAR WEIGHT CHEMICAL COMPOUND TO ANTAGONIZE EPH-EPHRIN TETRAMERIZATION AND INHIBIT BIDIRECTIONAL SIGNALING” (THE BOARD OF REGENTS OF THE UNIVERSITY OF TEXAS SYSTEM, priority 2022, published 2026)
Several values for one entry are separate records, joined by “and”; a condition that tells them apart may be missing. Equal values may be shown once. Entries after “also recorded” stand apart in the source; their conditions may differ. Read-outs that look alike come from different tables or passages of the source. Marks after values point to notes of the source that are not given here.

Experiments:
EphrinB2-EphB2 [1] = target: T1, EphrinB2-EphB2 (Homo sapiens, UniProt P29323); test: Octet tetramerization inhibition, immobilized human EphrinB2 binding to 50 nM soluble human EphB2
T1 construct: soluble human EphB1-His, EphB2-His, and EphB4-His ectodomains; commercially available human EphrinB1-Fc (EB1), EphrinB2-Fc (EB2), and EphrinB3-Fc (EB3) ectodomain proteins; purchased
T1 sequence (P29323 19-543 limits assumed): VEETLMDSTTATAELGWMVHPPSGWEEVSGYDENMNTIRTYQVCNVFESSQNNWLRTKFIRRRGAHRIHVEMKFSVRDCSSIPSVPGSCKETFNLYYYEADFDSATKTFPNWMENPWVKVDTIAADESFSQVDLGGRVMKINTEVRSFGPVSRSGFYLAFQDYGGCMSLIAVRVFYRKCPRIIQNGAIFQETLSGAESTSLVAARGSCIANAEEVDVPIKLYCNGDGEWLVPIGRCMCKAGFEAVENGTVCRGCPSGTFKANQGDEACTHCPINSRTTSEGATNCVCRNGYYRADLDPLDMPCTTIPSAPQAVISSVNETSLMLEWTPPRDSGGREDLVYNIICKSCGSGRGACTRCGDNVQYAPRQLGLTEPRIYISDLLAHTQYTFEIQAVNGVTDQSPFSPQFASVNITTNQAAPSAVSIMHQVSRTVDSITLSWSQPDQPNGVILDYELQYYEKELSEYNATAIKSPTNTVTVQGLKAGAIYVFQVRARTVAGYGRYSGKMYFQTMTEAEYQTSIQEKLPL

EphrinB2-EphB2 [2] = target: T1, EphrinB2-EphB2; test: Octet 80 sec association/500 sec dissociation, immobilized human EphrinB2-Fc binding to soluble human EphB2-His; conditions: for EphB2 Inhibition Percent, Inhibition of Association-Dissociation: at 3.2 μM and 580 seconds; for inhibition of EphrinB2-EphB interactions: 3.2 μM, EphB1, EphB2 and EphB4
Procedure, shortened: (§1)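 EphrinB2-Fc captured on AHC biosensors, then soluble His-tagged EphB ectodomain (25 nM for % inhibition runs) associated 80 s and dissociated 500 s in PBS, 0.05% Tween-20, 1% DMSO ± compound. Compounds tested at 0.1–3.2 μM with a 10 μM max standard; IC50 from AUC of full traces or at 75 s and 135 s.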

EphrinB2-EphB4 = target: T2, EphrinB2-EphB4 (Homo sapiens, UniProt P54760); test: Octet 80 sec association/500 sec dissociation, immobilized human EphrinB2-Fc binding to soluble human EphB4-His; conditions: for EphB4 Inhibition Percent, Inhibition of Association ONLY: at 3.2 μM and 80 seconds; for inhibition at 3.2 µM: EphB4, 25 nM EphB4, 3.2 μM compound, A20-I as max control, 0* = less than 0, no inhibition
T2 construct: soluble human EphB1-His, EphB2-His, and EphB4-His ectodomains; commercially available human EphrinB1-Fc (EB1), EphrinB2-Fc (EB2), and EphrinB3-Fc (EB3) ectodomain proteins; purchased
T2 sequence (P54760 16-539 limits assumed): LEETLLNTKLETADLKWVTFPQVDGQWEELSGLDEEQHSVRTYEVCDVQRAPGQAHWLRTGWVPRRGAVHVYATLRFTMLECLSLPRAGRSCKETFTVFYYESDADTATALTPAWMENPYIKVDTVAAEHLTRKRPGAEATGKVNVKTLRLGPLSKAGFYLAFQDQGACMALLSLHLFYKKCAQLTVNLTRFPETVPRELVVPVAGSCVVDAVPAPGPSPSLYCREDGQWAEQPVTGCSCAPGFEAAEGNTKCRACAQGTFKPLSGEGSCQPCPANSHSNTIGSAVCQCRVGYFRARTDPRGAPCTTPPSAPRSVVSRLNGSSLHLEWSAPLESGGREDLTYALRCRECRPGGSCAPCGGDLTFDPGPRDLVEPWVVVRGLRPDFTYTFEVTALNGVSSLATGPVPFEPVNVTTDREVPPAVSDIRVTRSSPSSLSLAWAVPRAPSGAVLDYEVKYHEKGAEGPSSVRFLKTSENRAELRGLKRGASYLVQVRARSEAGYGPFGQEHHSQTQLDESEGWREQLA
Procedure, shortened: as §1

[3] = Absolute AUC/IC50, Table A, EphrinB2-EphB2
[4] = Absolute Association IC50 (300 sec), Table A, EphrinB2-EphB2
[5] = Absolute Dissociation IC50 (450 sec), Table A, EphrinB2-EphB2
[6] = Relative AUC/IC50, Table A, EphrinB2-EphB2, compound 7: association only
[7] = Relative Association IC50 (300 sec), Table A, EphrinB2-EphB2
[8] = Relative Dissociation IC50 (450 sec), Table A, EphrinB2-EphB2
[9] = immobilized human EphrinB2, 25 nM soluble human EphB2
[10] = immobilized human EphrinB2, 25 nM soluble human EphB4
[11] = tetramerization inhibitor IC50 (relative), association step, surmountable tetramer
[12] = EphB2, 25 nM EphB2, 3.2 μM compound, A20-I as max control, 0* = less than 0, no inhibition, read-out: % Inhibition: Association + Dissociation (160 sec)
[13] = EphB2, 25 nM EphB2, 3.2 μM compound, A20-I as max control, 0* = less than 0, no inhibition, read-out: % Inhibition: Association ONLY (80 sec)
[14] = read-out: % Inhibition: Association + Dissociation (160 sec)
[15] = read-out: % Inhibition: Association ONLY (80 sec)

| Compound | IC50 (EphrinB2-EphB2 [1]; [3]) | IC50 (EphrinB2-EphB2 [1]; [4]) | IC50 (EphrinB2-EphB2 [1]; [5]) | IC50 (EphrinB2-EphB2 [1]; [6]) | IC50 (EphrinB2-EphB2 [1]; [7]) | IC50 (EphrinB2-EphB2 [1]; [8]) | EphB2 Inhibition Percent, Inhibition of Association-Dissociation (EphrinB2-EphB2 [2]; [9]) | EphB4 Inhibition Percent, Inhibition of Association ONLY (EphrinB2-EphB4; [10]) | IC50 (EphrinB2-EphB2 [1]; [11]) | inhibition of EphrinB2-EphB interactions (EphrinB2-EphB2 [2]) | inhibition at 3.2 µM (EphrinB2-EphB2 [2]; [12]) | inhibition at 3.2 µM (EphrinB2-EphB2 [2]; [13]) | inhibition at 3.2 µM (EphrinB2-EphB4; [14]) | inhibition at 3.2 µM (EphrinB2-EphB4; [15]) | further results |
| --- | --- | --- | --- | --- | --- | --- | --- | --- | --- | --- | --- | --- | --- | --- | --- |
| O=S1(=O)CCN(Cc2ccc(O)c3ncccc23)CC1 [Compound 15, 4-((8-hydroxyquinolin-1-ium-5-yl)methyl)thiomorpholin-4-ium 1,1-dioxide chloride] | > 1600 nM | > 1600 nM | > 1600 nM | 620 nM | > 1600 nM | 1150 nM | 46.4% | 10.8% | – | – | – | – | – | – | EphB2 Inhibition Percent, Inhibition of Association ONLY (EphrinB2-EphB2 [2]; at 3.2 μM and 80 seconds, immobilized human EphrinB2, 25 nM soluble human EphB2): 33.8%; EphB4 Inhibition Percent, Inhibition of Association-Dissociation (EphrinB2-EphB4; at 3.2 μM and 580 seconds, immobilized human EphrinB2, 25 nM soluble human EphB4): 19.0% |
| Oc1c(Cl)cc(CN2CCOCC2)c2cccnc12 [Compound 3, 7-chloro-5-(morpholinomethyl)quinolin-8-ol] | 2400 nM | 2340 nM | 1700 nM | – | 1120 nM | 1050 nM | – | – | ~500 nM | activity similar to A20-I max control | 78.1% | 64.1% | 35.5% | 16.8% | – |
| O=[N+]([O-])c1cc(CN2CCOCC2)c2cccnc2c1O [Compound 9, 5-(morpholinomethyl)-7-nitroquinolin-8-ol] | > 3200 nM | > 3200 nM | > 3200 nM | > 3200 nM | > 3200 nM | > 3200 nM | 58.0% (2×) and 38.9% | 0.6% and 0% and 8.2% | > 3000 nM | – | – | – | – | – | tetramerization inhibitor activity (EphrinB2-EphB2 [1]): weak, essentially inactive; % Inhibition: Association + Dissociation (160 sec) (EphrinB2-EphB2 [2]; EphB2, 25 nM EphB2, 3.2 μM compound, A20-I as max control, 0* = less than 0, no inhibition, listed as A19-NO2 (A)): 58.0% and 38.9%; inhibition of EphB2-EphrinB2 binding (EphrinB2-EphB2 [2]; association step, general): 40%; less % inhibition activity toward EphrinB2-EphB4 (EphrinB2-EphB4; 3.2 μM): approximately 20 fold; selectivity among EphrinB2-EphB1/B2/B4 (EphrinB2-EphB4; 3.2 μM, listed as A19-NO2): selectively inhibit EphrinB2-EphB2 and EphrinB2-EphB1 interactions, while sparing most of the EphrinB2-EphB4 interaction; also recorded: less action towards EphB4 but high specificity for EphB1 and EphB2; inhibition of EphB4-EphrinB2 binding (EphrinB2-EphB4; association step, general): 0% |
| Oc1c(Br)cc(CN2CCOCC2)c2cccnc12 [Compound 5, 7-bromo-5-(morpholinomethyl)quinolin-8-ol] | – | – | – | – | – | – | – | – | ~500 nM | – | 75.7% | 55.4% | 23% | 0% | IC50 (EphrinB2-EphB2 [1]; absolute IC50, association, dissociation and AUC, A20 salt): ~1000 nM and 1000 nM; IC50 (EphrinB2-EphB2 [1]; effective/relative IC50, A20 salt): < 1000 nM; association slope (EphrinB2-EphB2 [1]; in presence of A20, role: inhibitor, 20° without): 10 °; IC (maximum) (EphrinB2-EphB2 [1]; read-out: concentration producing maximum inhibition): 1 µM; inhibition at 1 µM (EphrinB2-EphB2 [1]; read-out: reduction of association response): ~50% |
| COc1ccc2[nH]cc(C(=O)N3CCOCC3)c2c1 [Compound 63, (5-methoxy-1H-indol-3-yl)(morpholino)methanone] | > 3200 nM | > 3200 nM | > 3200 nM | > 3200 nM | > 3200 nM | > 3200 nM | 0*% | – | – | showed no activity across the board | 1.3% | 4.3% | 0% | 0% | – |
